According to patent publication US20160361257A1, “COMPOSITION FOR INCREASING TESTOSTERONE LEVELS AND ENHANCING LIBIDO” (priority 2015, published 2016):

Experiments:
[1] = humans; prior art U.S. Pat. No. 5,880,117; cited from earlier work
[2] = half-life when delivered sublingually or transmucosally; conditions: in vivo
Description: 7-methoxyflavone is an aromatase inhibitor. Aromatase inhibitors work by inhibiting the action of the enzyme aromatase, which converts androgens into estrogens by a process called aromatization. 7-methoxyflavone is a compound having poor bioavailability of about 5% when ingested. According to an embodiment of the present invention, from about 5 mg to 50 mg, and preferably from about 20 mg to 30 mg of 7-methoxyflavone may be included in the formulations and dosage forms of the present invention, when delivered sublingually or transmucosally. […] According to an embodiment, the 7-methoxyflavone may be from a plant extract. 7-methoxyflavone has been found in Meliaceae and Rutaceae plants. According to an embodiment, the 7-methoxyflavone may therefore be from an extract containing at least 90% 7-methoxyflavone, standardized. Preferably, extract contains at least […] 7-methoxyflavone, standardized.
According to an embodiment of the present invention, from about 5 mg to 50 mg, and preferably from about 20 mg to 30 mg of 7,8-benzoflavone may be included in the formulations and dosage forms of the present invention, when delivered sublingually or transmucosally. According to an embodiment, the half-life of 7,8-benzoflavone is about 1-2h when delivered sublingually or transmucosally.

Compound	period over which concentration declines after the peak [1]	time to peak concentration after administration [1]	half-life [2]
C[C@]12CC[C@H]3[C@@H](CCC4=C[C@@H](O)CC[C@@]43C)[C@@H]1CC[C@@H]2O [4-androstene-3β, 17β-diol]	3 to 4 h	≤ 90 min	
O=c1cc(-c2ccccc2)oc2c1ccc1ccccc12 [7,8-benzoflavone, 2-phenyl-benzo(h)chromen-4-one]			1 to 2 h
COc1ccc2c(=O)cc(-c3ccccc3)oc2c1 [7-methoxyflavone]			8 to 12 h
